The values below come from patent publication US20140112992A1, “PROCESS FOR FEBUXOSTAT” (HETERO RESEARCH FOUNDATION, priority 2011, published 2014).

Series [1] in a line: Particle size distribution (D50) by laser diffraction, Sympatec Helos. The class given is physicochemical. The source says: The term “Particle Size Distribution (P.S.D.)” means the cumulative volume size distribution of equivalent spherical diameters as determined by laser diffraction at 1 bar dispersive pressure in Sympatec Helos equipment. “Mean particle size distribution, i.e., D50” correspondingly, means the median of said particle size distribution.

Series [2] relates to levels of uric acid. The conditions noted are these: compared to allopurinol; cited from earlier work.

Structures are written as SMILES.

In the case of `Cc1nc(-c2ccc(OCC(C)C)c(C#N)c2)sc1C(=O)O` [Febuxostat crystalline Form H1, 2-[3-cyano-4-(2-methylpropoxy)phenyl]-4-methyl-5-thiazolecarboxylic acid], the “D50 (mean particle size distribution)” value is 2.15 μm in series [1] (after grinding for 5 to 10 minutes) and 322.46 in series [1] (before grinding, in µm (unit assumed)).

On to `Cc1nc(-c2ccc(OCC(C)C)c(C#N)c2)sc1C(=O)O` [febuxostat, 2-[3-cyano-4-(2-methylpropoxy)phenyl]-4-methyl-5-thiazolecarboxylic acid], for which, in series [2], the “amount of initial gout flares or surface area of gout tophi” value is “no difference” and the “individuals with decreased levels of uric acid” value is “more individuals treated with febuxostat had decreased levels of uric acid”.
